Test results taken from patent publication US20170027172A1, “USE OF SUBSTITUTE OXO TETRAHYDROQUINOLINE SULFONAMIDES OR SALTS THEREOF FOR RAISING STRESS TOLERANCE OF PLANTS” (BAYER CROPSCIENCE AKTIENGESELLSCHAFT, priority 2014, published 2017).

Molecular target: T1, phosphatase ABI1 via the co-regulator RCAR11/PYR1 (Arabidopsis thaliana, UniProt O49686+P49597)
T1 sequence (O49686 1-191): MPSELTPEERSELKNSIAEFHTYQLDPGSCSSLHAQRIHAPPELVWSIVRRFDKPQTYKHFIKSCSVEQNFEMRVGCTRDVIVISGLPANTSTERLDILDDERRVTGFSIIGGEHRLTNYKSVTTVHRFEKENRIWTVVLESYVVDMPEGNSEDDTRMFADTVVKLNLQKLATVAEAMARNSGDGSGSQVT
T1 sequence (P49597 1-434): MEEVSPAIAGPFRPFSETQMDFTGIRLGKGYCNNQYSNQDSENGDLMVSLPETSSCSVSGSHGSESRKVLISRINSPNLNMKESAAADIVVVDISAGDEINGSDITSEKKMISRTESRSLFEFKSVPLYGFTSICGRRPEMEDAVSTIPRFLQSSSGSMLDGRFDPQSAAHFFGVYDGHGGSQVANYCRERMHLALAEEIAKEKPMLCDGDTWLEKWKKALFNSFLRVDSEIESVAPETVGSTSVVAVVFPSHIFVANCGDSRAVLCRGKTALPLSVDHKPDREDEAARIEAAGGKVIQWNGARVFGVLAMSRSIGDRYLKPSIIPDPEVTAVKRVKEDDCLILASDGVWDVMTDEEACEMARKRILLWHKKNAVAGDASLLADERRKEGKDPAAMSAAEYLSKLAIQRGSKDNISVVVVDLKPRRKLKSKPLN
Test: In vitro inhibition of the phosphatase ABI1 via the co-regulator RCAR11/PYR1, MUP dephosphorylation
Assay type: biochemical
Set-up: dose or concentration left out as unconfirmed
Conditions: in a solution of DMSO and water; fluorescence at 460 nm
Text: Effects of the phytohormone abscisic acid (ABA) on the behavior of plants under abiotic stress and the mechanism of action of ABA are described in the literature (cf. Abrams et al., WO97/23441, Park et al. Science, 2009, 324, 1068; Grill et al. Science, 2009, 324, 1064; Tanokura et al. Biophysics, 2011, 7, 123; Schroeder et al. Plant J. 2010, 61, 290). Therefore, it is possible with the aid of a suitable in vitro test system to derive a correlation between the action of ABA and the stress response of a plant under abiotic stress. In the event of water deficiency (drought stress), plants form the phytohormone abscisic acid (ABA). This binds, along with a co-regulator (Regulatory Component of ABA-Receptor=RCAR according to Grill et al. Science, 2009, 324, 1064 or PYR/PYL according to Cutler et al. Science, 2009, 324, 1068), to a phosphatase (e.g. ABI1, a type 2C protein phosphatase, also abbreviated to PP2C) and inhibits its activity. As a result, a “downstream” kinase (e.g. SnRK2) is no longer dephosphorylated. This kinase, which is thus active, via phosphorylation of transcription factors (e.g. AREB/ABF, cf. Yoshida et al., 2010, 61, 672), switches on a genetic protection program to increase drought stress tolerance. The assay described hereinafter utilizes the inhibition of the phosphatase ABI1 via the co-regulator RCAR11/PYR1 aus Arabidopsis thaliana. For the determination of activity, the dephosphorylation of 4-methylumbelliferyl phosphate (MUP) was measured at 460 nm. The in vitro assay was conducted in Greiner 384-well PS microplates F-well, using two controls: a) 0.5% dimethyl sulfoxide (DMSO) and b) 5 μM abscisic acid (ABA). The assay described here was generally conducted with substance concentrations of the appropriate chemical test substances in a concentration range of 0.1 μM to 100 μM in a solution of DMSO and water. The substance solution thus obtained, if necessary, was stirred with esterase from porcine liver (EC 3.1.1.1) at room temperature for 3 h and centrifuged at 4000 rpm for 30 min. A total volume of 45 μl was introduced into each cavity of the microplate, having the following composition: • 1) 5 μl of substance solution, i.e. a) DMSO 5% or b) abscisic acid solution or c) the corresponding example compound of the general formula (I) dissolved in 5% DMSO. • 2) 20 μl of enzyme buffer mix, composed of a) 40% by vol. of enzyme buffer (10 mL contain equal proportions by volume of 500 mM Tris-HCl pH 8, 500 mM NaCl, 3.33 mM MnCl2, 40 mM dithiothreitol (DTT)), b) 4% by vol. of ABI1 dilution (protein stock solution was diluted so as to give, after addition, a final concentration in the assay of 0.15 μg ABI1/well), c) 4% by vol. of RCAR11 dilution (enzyme stock was diluted so as to give, on addition of the dilution to the enzyme buffer mix, a final concentration in the assay of 0.30 μg enzyme/well), d) 5% by vol. of Tween20 (1%), e) 47% by vol. H2O bi-dist. • 3) 20 μl of substrate mix, composed of a) 10% by vol. of 500 mM Tris-HCl pH8, b) 10% by vol. of 500 mM NaCl, c) 10% by vol. of 3.33 mM MnCl2, d) 5% by vol. of 25 mM MUP, 5% by vol. of Tween20 (1%), 60% by vol. of H2O bi-dist.
Enzyme buffer mix and substrate mix were made up 5 minutes prior to the addition and warmed to a temperature of 35° C. On completion of pipetting of all the solutions and on completion of mixing, the plate was incubated at 35° C. for 20 minutes. Finally, a relative fluorescence measurement was made at 35° C. with a BMG Labtech “POLARstar Optima” microplate reader using a 340/10 nm excitation filter and a 460 nm emission filter. The efficacy of the compounds of the general formula (I) is reported in the table which follows using abscisic acid […] as comparative substance (No. 37) according to the following classification: ++++ (inhibition≧90%), +++ (90%>inhibition≧70%), ++ (70%>inhibition≧50%), + (50%>inhibition≧30%). […]

ABI1 inhibition	Compound
++++ (inhibition≧90%)	CC(C#N)CN1C(=O)CCc2cc(NS(=O)(=O)Cc3ccc(Cl)cc3)ccc21 (stereo not drawn) [A47-165]
++++ (inhibition≧90%)	O=C1CCc2cc(NS(=O)(=O)Cc3ccc(Br)cc3)ccc2N1CC(F)(F)F [A2-172]
+++ (90%>inhibition≧70%)	O=C1CCc2cc(NS(=O)(=O)Cc3ccc(C(F)(F)F)cc3)ccc2N1CC1CCC1 [A21-178]
++++ (inhibition≧90%)	COC(=O)CN1C(=O)CCc2cc(NS(=O)(=O)Cc3ccc(Cl)cc3)ccc21 [A50-165]
++++ (inhibition≧90%)	N#Cc1ccc(CS(=O)(=O)Nc2ccc3c(c2)CCC(=O)N3CC(F)(F)C(F)(F)F)cc1 [A10-181]
++++ (inhibition≧90%)	N#Cc1ccc(CS(=O)(=O)Nc2ccc3c(c2)CCC(=O)N3CC(F)F)cc1 [A1-181]
++++ (inhibition≧90%)	O=C1CCc2cc(NS(=O)(=O)Cc3ccc(Br)cc3)ccc2N1CC(F)F [A1-172]
+++ (90%>inhibition≧70%)	COC(=O)CN1C(=O)CCc2cc(NS(=O)(=O)Cc3ccc(F)cc3)ccc21 [A50-158]
+++ (90%>inhibition≧70%)	O=C1CCc2cc(NS(=O)(=O)Cc3ccccc3[N+](=O)[O-])ccc2N1CC(F)(F)F [A2-177]
++++ (inhibition≧90%)	O=C1CCc2cc(NS(=O)(=O)Cc3ccc(C(F)(F)F)cc3)ccc2N1CC(F)(F)F [A2-178]
++++ (inhibition≧90%)	O=C1CCc2cc(NS(=O)(=O)Cc3ccc(F)cc3)ccc2N1CC(F)(F)F [A2-158]
++++ (inhibition≧90%)	O=C1CCc2cc(NS(=O)(=O)Cc3ccc([N+](=O)[O-])cc3)ccc2N1CC(F)(F)F [A2-175]
+++ (90%>inhibition≧70%)	O=C1CCc2cc(NS(=O)(=O)Cc3ccc([N+](=O)[O-])cc3)ccc2N1CC(F)F [A1-175]
++ (70%>inhibition≧50%)	Cc1ccc(CS(=O)(=O)Nc2ccc3c(c2)CCC(=O)N3CC#N)cc1 [A16-152]
++ (70%>inhibition≧50%)	O=C1CCc2cc(NS(=O)(=O)Cc3ccccc3Cl)ccc2N1CC(F)(F)F [A2-168]
++++ (inhibition≧90%)	O=C1CCc2cc(NS(=O)(=O)Cc3ccc(Cl)cc3)ccc2N1CC(F)(F)C(F)(F)F [A10-165]
++++ (inhibition≧90%)	N#Cc1ccc(CS(=O)(=O)Nc2ccc3c(c2)CCC(=O)N3CC(F)(F)F)cc1 [A2-181]
+++ (90%>inhibition≧70%)	O=C1CCc2cc(NS(=O)(=O)Cc3cccc([N+](=O)[O-])c3)ccc2N1CC(F)(F)F [A2-176]
++++ (inhibition≧90%)	O=C1CCc2cc(NS(=O)(=O)Cc3ccc([N+](=O)[O-])cc3)ccc2N1CC1CC1 [A19-175]

The next lines start with the compound.

Compound	ABI1 inhibition
COC(=O)CCN1C(=O)CCc2cc(NS(=O)(=O)Cc3ccc(C)cc3)ccc21 [A51-152]	++++ (inhibition≧90%)
COC(=O)CN1C(=O)CCc2cc(NS(=O)(=O)Cc3ccc(Br)cc3)ccc21 [A50-172]	++++ (inhibition≧90%)
COC(=O)CN1C(=O)CCc2cc(NS(=O)(=O)Cc3ccccc3F)ccc21 [A50-161]	+++ (90%>inhibition≧70%)
O=C1CCc2cc(NS(=O)(=O)Cc3ccc(Cl)cc3)ccc2N1CC1CC1(Cl)Cl (racemic) [A32-165]	++ (70%>inhibition≧50%)
CCc1ccc(CS(=O)(=O)Nc2ccc3c(c2)CCC(=O)N3CC2CC2)cc1 [A19-325, N-[1-(Cyclopropylmethyl)-2-oxo-1,2,3,4-tetrahydroquinolin-6-yl]-1-(4-ethylphenyl)methanesulfonamide]	++++ (inhibition≧90%)
Cc1ccc(CS(=O)(=O)Nc2ccc3c(c2)CCC(=O)N3CC2CCC2)cc1 [A21-152]	++++ (inhibition≧90%)
O=C1CCc2cc(NS(=O)(=O)Cc3ccc(Cl)cc3)ccc2N1CC1CCCC1 [A22-165]	+++ (90%>inhibition≧70%)
N#Cc1ccc(CS(=O)(=O)Nc2ccc3c(c2)CCC(=O)N3CC2CCC2)cc1 [A21-181, N-[1-(Cyclobutylmethyl)-2-oxo-1,2,3,4-tetrahydroquinolin-6-yl]-1-(4-cyanophenyl)methanesulfonamide]	++++ (inhibition≧90%)
O=C1CCc2cc(NS(=O)(=O)Cc3cccc(F)c3)ccc2N1CC1CCC1 [A21-159]	++++ (inhibition≧90%)
O=C1CCc2cc(NS(=O)(=O)Cc3ccc(F)cc3)ccc2N1CC1CC1(Cl)Cl (racemic) [A32-158]	+ (50%>inhibition≧30%)
COCCN1C(=O)CCc2cc(NS(=O)(=O)Cc3ccc(C)cc3)ccc21 [A38-152, N-[1-(Methoxyethyl)-2-oxo-1,2,3,4-tetrahydroquinolin-6-yl]-1-(4-methylphenyl)methanesulfonamide]	++++ (inhibition≧90%)
CCOCCN1C(=O)CCc2cc(NS(=O)(=O)Cc3ccc(C#N)cc3)ccc21 [A39-181]	+++ (90%>inhibition≧70%)
O=C1CCc2cc(NS(=O)(=O)Cc3ccc(Cl)cc3)ccc2N1CC1CCC1 [A21-165]	++++ (inhibition≧90%)
O=C1CCc2cc(NS(=O)(=O)Cc3cccc(Cl)c3)ccc2N1CC(F)F [A1-166]	++ (70%>inhibition≧50%)
O=C1CCc2cc(NS(=O)(=O)Cc3ccc(Cl)cc3)ccc2N1CC1CC1 [A19-165]	++++ (inhibition≧90%)
CC1(C)CC(=O)N(CC#N)c2ccc(NS(=O)(=O)Cc3ccc(Cl)cc3)cc21 [B16-165]	+++ (90%>inhibition≧70%)
CC1=CC(=O)CC(C)(C)[C@@]1(O)/C=C/C(C)=C\C(=O)O [abscisic acid, reference compound]	++++ (inhibition≧90%)
Cc1ccc(S(=O)(=O)Nc2ccc3c(c2)C2(CCC2)CC(=O)N3CC2CC2)cc1 [J3-50, 4-Methyl-N-[1′-(cyclopropylmethyl)-2′-oxo-2′,3′-dihydro-1′H-spiro[cyclobutyl-1,4′-quinolin]-6′-yl]phenylsulfonamide]	+ (50%>inhibition≧30%)
COC(=O)CCN1C(=O)CCc2cc(NS(=O)(=O)Cc3ccccc3[N+](=O)[O-])ccc21 [A51-177]	++ (70%>inhibition≧50%)
CC(C)(C)c1ccc(CS(=O)(=O)Nc2ccc3c(c2)CCC(=O)N3CC2CCC2)cc1 [A21-332]	++++ (inhibition≧90%)
